# Results taken from ChEMBL document CHEMBL5465560, “Selectivity Literature for EUbOPEN Chemogenomic Library” (2024).
# What was measured:
# [1] = test system: eIF-2-alpha kinase GCN2 (Homo sapiens), Q9P2K8 [S808G]; assay: Selectivity interaction (KinomeScan (DiscoverX)) EUB0000229b EIF2AK4; conditions: at 10 µM
# [2] = test system: Mast/stem cell growth factor receptor Kit (Homo sapiens), P10721 [V559D,V654A]; conditions: at 10 µM
# [3] = biological target: Tyrosine-protein kinase HCK (Homo sapiens) (UniProt P08631); assay: Selectivity interaction (ActivX KiNativ screen (kinase selectivity in THP-1 cell lysates)) EUB0000639a HCK; format: subcellular; conditions: lysate
# [4] = biological target: T1, Tyrosine-protein kinase Tec (Homo sapiens) (UniProt P42680); assay: Selectivity interaction (ActivX KiNativ screen (kinase selectivity in THP-1 cell lysates)) EUB0000639a TEC; format: subcellular; conditions: lysate
# T1 sequence (whole entry): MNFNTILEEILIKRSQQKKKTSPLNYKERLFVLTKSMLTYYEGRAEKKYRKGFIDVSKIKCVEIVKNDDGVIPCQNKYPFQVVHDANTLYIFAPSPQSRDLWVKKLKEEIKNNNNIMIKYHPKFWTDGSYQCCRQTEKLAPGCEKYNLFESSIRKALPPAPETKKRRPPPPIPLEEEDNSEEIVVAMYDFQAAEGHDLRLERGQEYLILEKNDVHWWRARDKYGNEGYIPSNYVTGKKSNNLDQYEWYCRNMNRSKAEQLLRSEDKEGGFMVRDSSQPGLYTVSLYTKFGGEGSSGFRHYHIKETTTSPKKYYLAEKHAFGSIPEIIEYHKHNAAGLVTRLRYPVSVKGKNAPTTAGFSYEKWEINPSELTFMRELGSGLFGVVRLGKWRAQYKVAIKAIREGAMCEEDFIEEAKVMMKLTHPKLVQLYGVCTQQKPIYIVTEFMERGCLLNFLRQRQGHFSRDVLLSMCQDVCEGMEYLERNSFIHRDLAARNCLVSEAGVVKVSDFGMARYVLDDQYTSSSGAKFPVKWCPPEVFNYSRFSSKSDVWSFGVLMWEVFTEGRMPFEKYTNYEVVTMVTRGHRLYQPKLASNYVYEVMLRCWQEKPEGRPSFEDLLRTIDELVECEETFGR
# [5] = biological target: Ephrin type-A receptor 7 (Homo sapiens) (UniProt Q15375); assay: Selectivity interaction (Kinase panel (Invitrogen)) EUB0000639a EPHA7; conditions: at 200 nM
# [6] = biological target: Casein kinase I isoform delta (Homo sapiens, UniProt P48730); assay: Selectivity interaction (KinomeScan (DiscoverX)) EUB0000092b CSNK1D; conditions: at 10 µM
# [7] = biological target: Insulin-like growth factor 1 receptor (Homo sapiens, UniProt P08069); assay: Selectivity interaction (Kinase screening (Nanosyn)) EUB0000604a IGF1R
# [8] = biological target: Platelet-derived growth factor receptor alpha (Homo sapiens, UniProt P16234); assay: Selectivity interaction (KinomeScan (DiscoverX)) EUB0000618a PDGFRA; conditions: at 10 µM
# [9] = biological target: AP2-associated protein kinase 1 (Homo sapiens, UniProt Q2M2I8); conditions: at 10 µM
# [10] = biological target: Serine/threonine-protein kinase 32C (Homo sapiens) (UniProt Q86UX6); assay: Selectivity interaction (KinomeScan (DiscoverX)) EUB0001619a STK32C; conditions: at 1 µM
# [11] = biological target: T2, Dual serine/threonine and tyrosine protein kinase (Homo sapiens) (UniProt Q6XUX3); assay: Selectivity interaction (KinomeScan (DiscoverX)) EUB0000655a DSTYK; conditions: at 10 µM
# T2 sequence (whole entry): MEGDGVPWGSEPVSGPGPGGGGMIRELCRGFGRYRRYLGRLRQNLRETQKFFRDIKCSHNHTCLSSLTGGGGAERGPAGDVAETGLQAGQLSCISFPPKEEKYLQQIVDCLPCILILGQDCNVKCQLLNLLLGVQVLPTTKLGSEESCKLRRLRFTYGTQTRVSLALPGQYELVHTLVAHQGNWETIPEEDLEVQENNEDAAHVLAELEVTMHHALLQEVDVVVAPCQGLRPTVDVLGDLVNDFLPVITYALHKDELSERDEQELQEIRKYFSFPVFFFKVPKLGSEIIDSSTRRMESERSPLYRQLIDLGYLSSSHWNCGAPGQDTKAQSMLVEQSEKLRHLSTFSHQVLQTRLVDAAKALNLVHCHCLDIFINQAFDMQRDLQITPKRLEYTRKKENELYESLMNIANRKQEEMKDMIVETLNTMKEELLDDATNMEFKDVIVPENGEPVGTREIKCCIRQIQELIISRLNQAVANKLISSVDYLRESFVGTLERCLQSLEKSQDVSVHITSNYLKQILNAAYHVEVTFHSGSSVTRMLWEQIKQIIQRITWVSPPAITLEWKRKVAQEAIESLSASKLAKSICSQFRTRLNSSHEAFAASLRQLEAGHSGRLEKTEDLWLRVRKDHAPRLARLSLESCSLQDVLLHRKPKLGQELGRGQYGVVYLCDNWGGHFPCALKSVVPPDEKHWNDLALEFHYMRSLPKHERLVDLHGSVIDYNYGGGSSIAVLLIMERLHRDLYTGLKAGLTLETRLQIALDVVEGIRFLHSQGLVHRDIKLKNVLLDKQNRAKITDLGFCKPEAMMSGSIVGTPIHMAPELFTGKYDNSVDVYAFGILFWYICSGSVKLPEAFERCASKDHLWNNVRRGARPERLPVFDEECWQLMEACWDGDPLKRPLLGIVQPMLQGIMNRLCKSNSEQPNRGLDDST
# [12] = biological target: Macrophage-stimulating protein receptor (Homo sapiens, UniProt Q04912); assay: Selectivity interaction (KinomeScan (DiscoverX)) EUB0000607a MST1R; conditions: at 10 µM
# [13] = biological target: Ribosomal protein S6 kinase alpha-1 (Homo sapiens, UniProt Q15418); assay: Selectivity interaction (KinomeScan (DiscoverX)) EUB0000607a RPS6KA1; conditions: at 10 µM
# Sequence of Tyrosine-protein kinase HCK (Homo sapiens) (P08631 2-526 limits assumed): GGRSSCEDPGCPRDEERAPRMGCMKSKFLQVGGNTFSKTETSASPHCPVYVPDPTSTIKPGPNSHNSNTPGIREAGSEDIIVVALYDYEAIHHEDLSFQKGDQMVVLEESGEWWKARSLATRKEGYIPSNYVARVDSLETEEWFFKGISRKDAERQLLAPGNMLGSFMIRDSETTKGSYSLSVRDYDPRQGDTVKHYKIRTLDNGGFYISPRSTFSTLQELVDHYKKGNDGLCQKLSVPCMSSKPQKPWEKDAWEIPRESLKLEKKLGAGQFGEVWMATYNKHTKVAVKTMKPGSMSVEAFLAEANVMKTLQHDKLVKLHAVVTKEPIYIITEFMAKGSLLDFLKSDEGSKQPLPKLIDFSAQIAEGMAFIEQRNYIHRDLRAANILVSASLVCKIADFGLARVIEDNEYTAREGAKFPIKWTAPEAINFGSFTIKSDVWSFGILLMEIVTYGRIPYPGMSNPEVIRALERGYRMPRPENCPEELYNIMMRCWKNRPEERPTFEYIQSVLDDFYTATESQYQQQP
# Sequence of Insulin-like growth factor 1 receptor (P08069 31-736 limits assumed): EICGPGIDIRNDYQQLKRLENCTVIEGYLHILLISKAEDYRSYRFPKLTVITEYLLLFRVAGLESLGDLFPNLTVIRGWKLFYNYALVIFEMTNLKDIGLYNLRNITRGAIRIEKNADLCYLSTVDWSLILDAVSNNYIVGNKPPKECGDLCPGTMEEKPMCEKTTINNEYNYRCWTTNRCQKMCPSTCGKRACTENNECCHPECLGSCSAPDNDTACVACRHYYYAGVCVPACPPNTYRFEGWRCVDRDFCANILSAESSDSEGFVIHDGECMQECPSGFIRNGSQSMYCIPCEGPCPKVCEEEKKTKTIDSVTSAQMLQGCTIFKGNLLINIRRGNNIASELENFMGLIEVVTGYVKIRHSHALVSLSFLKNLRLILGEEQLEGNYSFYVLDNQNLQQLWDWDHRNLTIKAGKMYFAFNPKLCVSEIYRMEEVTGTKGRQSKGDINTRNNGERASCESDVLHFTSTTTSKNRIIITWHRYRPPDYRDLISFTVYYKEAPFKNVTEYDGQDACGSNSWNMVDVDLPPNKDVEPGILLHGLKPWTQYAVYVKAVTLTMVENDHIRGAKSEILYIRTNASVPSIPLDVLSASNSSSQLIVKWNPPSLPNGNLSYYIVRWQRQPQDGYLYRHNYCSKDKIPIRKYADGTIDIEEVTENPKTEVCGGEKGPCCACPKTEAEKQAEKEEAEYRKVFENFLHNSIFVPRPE
# Sequence of Insulin-like growth factor 1 receptor (P08069 741-1367 limits assumed): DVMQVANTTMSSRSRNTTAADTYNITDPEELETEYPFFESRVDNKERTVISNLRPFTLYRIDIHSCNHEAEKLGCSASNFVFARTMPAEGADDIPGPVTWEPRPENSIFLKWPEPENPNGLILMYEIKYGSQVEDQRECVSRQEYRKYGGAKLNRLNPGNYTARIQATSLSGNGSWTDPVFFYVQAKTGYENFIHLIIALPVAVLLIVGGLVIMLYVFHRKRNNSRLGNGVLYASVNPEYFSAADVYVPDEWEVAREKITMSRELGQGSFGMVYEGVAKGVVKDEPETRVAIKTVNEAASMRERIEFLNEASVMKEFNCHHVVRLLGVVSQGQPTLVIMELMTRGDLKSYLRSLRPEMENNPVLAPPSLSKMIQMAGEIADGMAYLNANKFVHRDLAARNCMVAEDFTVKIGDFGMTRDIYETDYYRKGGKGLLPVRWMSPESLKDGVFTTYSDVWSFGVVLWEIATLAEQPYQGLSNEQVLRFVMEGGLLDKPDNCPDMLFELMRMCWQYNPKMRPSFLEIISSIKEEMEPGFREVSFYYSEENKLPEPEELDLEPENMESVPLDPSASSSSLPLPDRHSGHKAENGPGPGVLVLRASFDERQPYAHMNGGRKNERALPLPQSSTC
# Sequence of eIF-2-alpha kinase GCN2 (Homo sapiens), Q9P2K8 [S808G] (Q9P2K8 whole entry S808G): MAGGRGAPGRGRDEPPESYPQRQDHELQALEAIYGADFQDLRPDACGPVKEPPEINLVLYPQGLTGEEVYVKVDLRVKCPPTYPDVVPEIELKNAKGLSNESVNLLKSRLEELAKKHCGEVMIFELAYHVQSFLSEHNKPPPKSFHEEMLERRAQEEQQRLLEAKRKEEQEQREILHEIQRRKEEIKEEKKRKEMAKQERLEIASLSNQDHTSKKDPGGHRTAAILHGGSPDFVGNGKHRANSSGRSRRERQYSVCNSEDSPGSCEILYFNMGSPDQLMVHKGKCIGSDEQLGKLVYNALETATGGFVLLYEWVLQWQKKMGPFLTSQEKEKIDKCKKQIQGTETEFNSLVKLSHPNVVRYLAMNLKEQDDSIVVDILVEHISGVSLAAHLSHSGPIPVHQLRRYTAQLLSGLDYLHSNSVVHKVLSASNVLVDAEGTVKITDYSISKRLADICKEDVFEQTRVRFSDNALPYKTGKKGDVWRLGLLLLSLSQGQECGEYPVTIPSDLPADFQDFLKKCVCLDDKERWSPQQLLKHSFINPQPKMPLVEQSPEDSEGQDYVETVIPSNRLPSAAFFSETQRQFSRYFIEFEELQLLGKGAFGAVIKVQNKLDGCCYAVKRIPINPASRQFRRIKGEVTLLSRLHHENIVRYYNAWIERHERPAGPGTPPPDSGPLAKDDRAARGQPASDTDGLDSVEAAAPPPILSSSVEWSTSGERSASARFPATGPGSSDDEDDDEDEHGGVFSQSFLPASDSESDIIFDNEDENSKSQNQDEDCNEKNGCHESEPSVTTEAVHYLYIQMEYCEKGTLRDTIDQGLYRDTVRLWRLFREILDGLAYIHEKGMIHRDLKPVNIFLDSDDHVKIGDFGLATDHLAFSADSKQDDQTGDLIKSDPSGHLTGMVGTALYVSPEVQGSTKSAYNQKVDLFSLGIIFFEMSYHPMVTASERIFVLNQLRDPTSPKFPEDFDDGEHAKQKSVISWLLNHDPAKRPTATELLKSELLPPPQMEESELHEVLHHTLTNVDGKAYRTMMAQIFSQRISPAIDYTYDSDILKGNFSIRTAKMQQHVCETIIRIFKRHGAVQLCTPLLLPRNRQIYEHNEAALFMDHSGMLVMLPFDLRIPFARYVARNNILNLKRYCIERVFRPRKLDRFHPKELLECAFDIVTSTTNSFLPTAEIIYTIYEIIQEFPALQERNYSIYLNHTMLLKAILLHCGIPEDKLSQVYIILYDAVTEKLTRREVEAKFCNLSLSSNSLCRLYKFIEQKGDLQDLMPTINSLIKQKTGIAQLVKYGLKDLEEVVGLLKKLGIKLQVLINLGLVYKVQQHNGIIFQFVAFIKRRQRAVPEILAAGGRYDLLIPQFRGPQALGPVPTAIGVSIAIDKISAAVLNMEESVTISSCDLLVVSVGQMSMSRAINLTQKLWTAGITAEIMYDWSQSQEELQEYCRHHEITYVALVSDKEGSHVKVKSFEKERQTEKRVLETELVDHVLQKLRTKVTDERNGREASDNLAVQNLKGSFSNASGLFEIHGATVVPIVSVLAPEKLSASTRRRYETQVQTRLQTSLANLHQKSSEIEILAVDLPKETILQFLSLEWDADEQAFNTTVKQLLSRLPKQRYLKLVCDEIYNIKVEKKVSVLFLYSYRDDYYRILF
# Sequence of Platelet-derived growth factor receptor alpha (P16234 whole entry): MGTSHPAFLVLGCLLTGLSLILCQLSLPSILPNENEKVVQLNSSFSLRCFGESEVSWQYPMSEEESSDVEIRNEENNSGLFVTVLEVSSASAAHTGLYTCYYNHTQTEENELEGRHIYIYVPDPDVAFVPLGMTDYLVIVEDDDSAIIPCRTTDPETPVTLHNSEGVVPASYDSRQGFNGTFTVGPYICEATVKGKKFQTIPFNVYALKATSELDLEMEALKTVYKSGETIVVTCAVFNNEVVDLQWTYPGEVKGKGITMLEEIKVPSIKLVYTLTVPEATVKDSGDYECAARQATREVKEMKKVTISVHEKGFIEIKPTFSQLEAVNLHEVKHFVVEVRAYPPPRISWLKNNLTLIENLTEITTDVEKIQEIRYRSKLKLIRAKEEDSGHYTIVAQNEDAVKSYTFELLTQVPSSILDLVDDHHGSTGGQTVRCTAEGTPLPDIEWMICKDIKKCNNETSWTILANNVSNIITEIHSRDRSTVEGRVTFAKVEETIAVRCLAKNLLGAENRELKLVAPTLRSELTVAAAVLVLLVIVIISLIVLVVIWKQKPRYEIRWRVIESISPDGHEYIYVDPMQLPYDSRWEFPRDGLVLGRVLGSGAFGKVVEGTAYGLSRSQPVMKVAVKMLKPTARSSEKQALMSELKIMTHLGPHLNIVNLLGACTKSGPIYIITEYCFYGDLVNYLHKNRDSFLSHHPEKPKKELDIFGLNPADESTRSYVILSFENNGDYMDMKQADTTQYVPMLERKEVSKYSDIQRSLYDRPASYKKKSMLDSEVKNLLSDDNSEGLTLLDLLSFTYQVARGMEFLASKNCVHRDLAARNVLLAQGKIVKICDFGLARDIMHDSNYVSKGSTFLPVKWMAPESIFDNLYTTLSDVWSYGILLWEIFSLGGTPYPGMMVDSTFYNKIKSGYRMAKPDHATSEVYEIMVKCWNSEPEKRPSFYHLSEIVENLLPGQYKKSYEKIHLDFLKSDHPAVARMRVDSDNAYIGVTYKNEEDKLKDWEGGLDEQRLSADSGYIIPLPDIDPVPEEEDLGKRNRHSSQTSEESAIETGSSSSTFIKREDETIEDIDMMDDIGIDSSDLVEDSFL
# Sequence of Casein kinase I isoform delta (P48730 whole entry, looked up, canonical isoform): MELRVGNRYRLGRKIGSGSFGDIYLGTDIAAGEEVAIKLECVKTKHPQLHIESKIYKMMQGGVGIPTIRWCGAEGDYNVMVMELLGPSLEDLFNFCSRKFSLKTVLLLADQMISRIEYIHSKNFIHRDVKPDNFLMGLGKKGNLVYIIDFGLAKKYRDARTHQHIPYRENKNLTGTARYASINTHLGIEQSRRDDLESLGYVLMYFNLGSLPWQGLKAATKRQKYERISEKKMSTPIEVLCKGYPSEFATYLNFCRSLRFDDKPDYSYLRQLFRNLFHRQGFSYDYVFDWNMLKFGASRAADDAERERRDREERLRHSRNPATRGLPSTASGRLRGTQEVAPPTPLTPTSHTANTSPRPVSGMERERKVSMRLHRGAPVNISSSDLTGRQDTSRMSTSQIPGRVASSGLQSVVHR
smiles,measurement,setting,value
COc1cc(N(C)c2ccnc3ccc(C(F)(F)F)cc23)cc(OC)c1OC,% binding,[1],100%
CCN(CC)CCCCNc1ncc2cc(-c3cc(OC)cc(OC)c3)c(NC(=O)NC(C)(C)C)nc2n1,% of control,[2],100%
CC[C@@H]1[C@H](F)C(=O)N[C@@H]1COc1nccc2cc(C(N)=O)c(OC)cc12 [ZIMLOVISERTIB],% of inhibition,[3]; at 0.01 µM,-5.9%
same,% of inhibition,[3]; at 0.04 µM,-8.6%
same,% of inhibition,[3]; at 0.2 µM,-9.9%
same,% of inhibition,[3]; at 1 µM,-4.8%
same,% of inhibition,[3]; at 5 µM,-3.1%
same,% of inhibition,[4]; at 0.01 µM,6%
same,% of inhibition,[4]; at 0.04 µM,0%
same,% of inhibition,[4]; at 0.2 µM,-2.1%
same,% of inhibition,[4]; at 1 µM,-3.6%
same,% of inhibition,[4]; at 5 µM,-0.9%
same,% of inhibition,[5],-7.96%
CCC(=O)N1CCN(c2ccc(-n3c(=O)ccc4cnc5ccc(-c6cnc7ccccc7c6)cc5c43)cc2C(F)(F)F)CC1,% of control,[6],4.3%
Cc1cnc(Nc2ccc(F)cc2Cl)nc1-c1c[nH]c(C(=O)N[C@H](CO)c2cccc(Cl)c2)c1,% of inhibition,[7],2%
O[C@H]1CC[C@H](Nc2ncc3nc(Nc4c(F)cc(F)cc4F)n([C@H]4CCOC4)c3n2)CC1,% of control,[8],82%
Cc1cc([C@@H](C)Nc2ccccc2C(=O)O)c2nc(N3CCOCC3)cc(=O)n2c1 [AZD-6482],% of control,[9],95%
N#Cc1cccc(-c2c[nH]c3ncnc(N4CCOCC4)c23)c1,% of control,[10],100%
CN(C)CCOc1ccc(-c2nc(-c3ccncc3)c(-c3ccc4c(c3)CC/C4=N\O)[nH]2)cc1,% of control,[11],83%
CNC(=O)Nc1ccc(-c2nc(N3CC4CCC(C3)O4)c3cnn(C4CCC5(CC4)OCCO5)c3n2)cc1,% of control,[12],100%
same,% of control,[13],100%
